Source: publication PMC10096376, “Insecticidal and Synergistic Potential of Three Monoterpenoids against the Yellow Fever Mosquito, Aedes aegypti (Diptera: Culicidae), and the House Fly, Musca domestica (Diptera: Muscidae)” (Molecules, 2023)
Where “and” joins values, the source holds several entries; their conditions need not be identical. Equal values may be shown once. Read-outs that look alike come from different tables or passages of the source.

Experiments:
[1] = animal and route not given; cited from earlier work
[2] = test system: Musca domestica; details: for LD10 (95% CI) / LD50 (95% CI) / LD90 (95% CI): 24 h, adult females, susceptible strain
[3] = test system: Musca domestica; assay: Co-toxicity assay with permethrin (topical); format: in vivo
Method: […]. Each dose was formulated in a total volume of 1.5 mL of acetone. A dose of permethrin that produced approximately 50% mortality (18 ng) was used as the treatment. Female flies were sorted into groups of 20 per synergism assay and dosed as previously mentioned (i.e., the same way as in the topical toxicity assays). Flies were assessed for mortality at 24 h.

[4] = test system: rat; details: cited from earlier work
[5] = test system: rat; details: in vivo; cited from earlier work
[6] = under a mercury lamp; cited from earlier work
[7] = cited from earlier work
[8] = molecular target: acetylcholinesterase (Musca domestica, UniProt Q7YWJ9); assay: In vitro inhibition of acetylcholinesterase (Ellman), head homogenate; format: biochemical
Sequence of acetylcholinesterase (Musca domestica, UniProt Q7YWJ9) (Q7YWJ9 81-660): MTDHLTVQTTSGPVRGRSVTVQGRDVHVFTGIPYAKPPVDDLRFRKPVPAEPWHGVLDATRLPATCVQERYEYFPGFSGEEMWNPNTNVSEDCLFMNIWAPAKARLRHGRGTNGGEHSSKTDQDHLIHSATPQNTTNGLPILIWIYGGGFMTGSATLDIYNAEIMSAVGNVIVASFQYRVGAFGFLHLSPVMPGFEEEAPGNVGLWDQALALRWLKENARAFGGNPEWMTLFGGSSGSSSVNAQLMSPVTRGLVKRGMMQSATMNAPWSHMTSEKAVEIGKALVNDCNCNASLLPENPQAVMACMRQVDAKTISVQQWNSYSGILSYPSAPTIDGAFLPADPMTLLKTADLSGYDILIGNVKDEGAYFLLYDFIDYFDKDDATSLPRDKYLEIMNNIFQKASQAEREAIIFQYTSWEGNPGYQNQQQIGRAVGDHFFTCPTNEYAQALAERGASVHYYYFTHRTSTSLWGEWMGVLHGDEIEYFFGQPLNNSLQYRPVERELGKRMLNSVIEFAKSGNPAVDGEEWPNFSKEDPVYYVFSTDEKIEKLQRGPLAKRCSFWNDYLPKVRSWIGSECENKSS
Method: (§1) Acetylcholinesterase inhibition was conducted on homogenates of whole-body Ae. aegypti and M. domestica heads using Ellman’s method. For Ae. aegypti, 10 whole female adults were placed in 2 mL microcentrifuge screw cap tubes with 3–5.2 mm zircon/silica beads and homogenized in 500 μL of sodium phosphate buffer (100 mM, pH 7.8) using a Precellys Evolution bead beater (Bertin Corp., Rockville, MD, USA) set to two 15-s pulses of 5600 rpm. Afterward, 500 μL of Triton X-100 buffer (100 mM sodium phosphate, pH 7.8, 0.6% Triton X-100) was added to each tube (final Triton X-100 concentration: 0.3%), inverted several times to mix up the sample, and then centrifuged at 10,000× g for 4 min at 4 °C. The supernatant was used as the enzyme source. The same process was carried out with M. domestica, except three heads were processed in a 1000:1000 μL sodium phosphate buffer and Triton X-100 buffer in the same manner as just described.
Concentration responses were conducted in the wells of a 96-well, clear, flat-bottomed plate. Inhibitor solutions of methomyl or monoterpenoids were first dissolved in DMSO (dimethyl sulfoxide) and then diluted in sodium phosphate buffer (100 mM, pH 7.8, DMSO concentration of 1%). A volume of 10 μL of the inhibitor solution was added to each well, along with 90 μL of sodium phosphate buffer, and finally 10 μL of homogenate. This was incubated on a plate shaker at 400 rpm for 10 min at room temperature. The final concentrations for methomyl were 100 μM, 10 μM, 1 μM, 100 nM, 10 nM, 1 nM, and 0 nM. For the monoterpenoids, the same range was used except the top concentration was 1 mM and the bottom non-zero concentration was 10 nM. The final concentration of DMSO in all wells was 0.09%.
After the 10-min incubation, 100 μL of Ellman’s reagent prepared in sodium phosphate buffer and each corresponding inhibitor concentration were added to the wells using a multichannel pipette.
(§2) Dose responses were modeled via probit analysis, and their resulting estimates were obtained. […] A control correction option (OPTC command) was used to account for responses to the vehicle control treatments. Co-toxicity values were calculated by the method of [29]. A co-toxicity factor of >+20 signifies potentiation, <−20 antagonism, and −20 to +20 additive.

[9] = test system: Aedes aegypti; details: for 1-h knockdown Co-Toxicity Factor / 24-h mortality Co-Toxicity Factor / 48-h mortality Co-Toxicity Factor: >+20 potentiation, <−20 antagonism, −20 to +20 additive
Method: (§3) For Ae. aegypti, synergism assays were performed similar to the topical applications described previously, with the following modifications: 2 doses (2 µg/mosquito and 10 µg/mosquito) of each monoterpenoid were applied as synergists, similar to previous studies exploring the synergistic potential of natural products in combination with an intermediate dose-level of insecticide alone.
(§4) Mosquitoes were transferred to deli cups and kept at a controlled temperature and humidity (the same conditions as described for the topical application of insecticides and monoterpenoids alone). Again, a minimum of 3 separate rearing cohorts were used among replicates of each dose combination.
as §2

[10] = test system: Aedes aegypti; details: for LD10 (95% CI) / LD50 (95% CI) / LD90 (95% CI): 24 h, topical, adult females, susceptible strain
[11] = test system: Aedes aegypti; assay: Co-toxicity assay with permethrin (topical); details: for 1-h knockdown Co-Toxicity Factor / 24-h mortality Co-Toxicity Factor: >+20 potentiation, <−20 antagonism, −20 to +20 additive
Method: as §3, §4, §2

[12] = test system: rabbit; details: ref 32,33 (L-fenchone), 35,36 (Permethrin), 37 (Methomyl); cited from earlier work
[13] = molecular target: T1, acetylcholinesterase (Aedes aegypti, UniProt Q6A2E2); assay: In vitro inhibition of acetylcholinesterase (Ellman), whole-body homogenate; format: biochemical; details: Ae. aegypti preparation, corrected for total protein; read-out: IC50 (95% CI)
T1 construct: The supernatant was used as the enzyme source; from tissue; host or cells: whole bodies of adult female Aedes aegypti, Orlando strain; Triton X-100 supernatant
T1 sequence (Q6A2E2 1-702): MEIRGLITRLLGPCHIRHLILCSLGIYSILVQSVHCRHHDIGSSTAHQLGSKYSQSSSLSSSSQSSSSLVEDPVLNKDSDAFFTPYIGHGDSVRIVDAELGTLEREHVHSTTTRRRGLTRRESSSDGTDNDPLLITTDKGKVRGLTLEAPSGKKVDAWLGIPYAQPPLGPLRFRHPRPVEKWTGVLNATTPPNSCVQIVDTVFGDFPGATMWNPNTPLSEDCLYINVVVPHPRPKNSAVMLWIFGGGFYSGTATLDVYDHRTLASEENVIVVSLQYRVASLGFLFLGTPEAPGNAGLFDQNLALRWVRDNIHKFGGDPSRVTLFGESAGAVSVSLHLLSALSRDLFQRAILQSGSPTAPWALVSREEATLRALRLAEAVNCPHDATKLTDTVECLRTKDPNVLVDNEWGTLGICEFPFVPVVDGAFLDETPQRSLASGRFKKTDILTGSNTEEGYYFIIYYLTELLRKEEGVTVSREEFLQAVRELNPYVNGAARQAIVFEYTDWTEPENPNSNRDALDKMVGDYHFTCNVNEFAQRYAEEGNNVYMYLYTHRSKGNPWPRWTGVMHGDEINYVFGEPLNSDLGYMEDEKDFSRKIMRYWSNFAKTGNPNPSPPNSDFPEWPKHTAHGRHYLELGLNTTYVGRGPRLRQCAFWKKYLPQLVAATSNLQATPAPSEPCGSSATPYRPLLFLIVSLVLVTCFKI
Method: as §1
Concentration responses were conducted in the wells of a 96-well, clear, flat-bottomed plate. Inhibitor solutions of methomyl or monoterpenoids were first dissolved in DMSO (dimethyl sulfoxide) and then diluted in sodium phosphate buffer (100 mM, pH 7.8, DMSO concentration of 1%). […]
Dose responses were modeled via probit analysis, and their resulting estimates were obtained. […] Co-toxicity values were calculated by the method of [29]. […]

[14] = 10.2 μg PBO, 70 μg carvone, 190 μg menthone, 80 μg fenchone per fly
[15] = near-sublethal synergist dose + permethrin, >+20 potentiation, <−20 antagonism, −20 to +20 additive
[16] = 10 μg synergist per Ae. aegypti

Cc1ccc(C(C)C)cc1O [carvacrol]
LD50 [1]: 2000 to 3000 mg/kg

CC(C)=C1CC[C@@H](C)CC1=O [pulegone]
LD50 [1]: 2000 to 3000 mg/kg

C=C(C)[C@@H]1CC=C(C)C(=O)C1 [Carvone, L-carvone]
LD10 (95% CI) ([2]; topical): 3300 (3100–3400) b ng/mg body weight
LD50 (95% CI) ([2]; topical): 4300 (4200–4400) b ng/mg body weight
LD90 (95% CI) ([2]; topical): 5600 (5300–5900) b ng/mg body weight
times as toxic as fenchone ([2]; at LD10): 2.7
times as toxic as menthone ([2]; at LD10): 1.6
times as toxic as fenchone ([2]; at LD50): 3.1
times as toxic as menthone ([2]; at LD50): 1.6
times as toxic as fenchone ([2]; at LD90): 3.6
times as toxic as menthone ([2]; at LD90): 1.6
1-h% Mean Knockdown ± SEM, Synergist Alone [3, 14]: 16 ± 11.8%
24-h% Mean Mortality ± SEM, Synergist Alone [3, 14]: 0 ± 0%
times as potent a synergist of permethrin as PBO ([3]; 24-h mortality): 1.2
1-h% Mean Knockdown ± SEM, Mixture ([3]; near-sublethal synergist dose (10.2 μg PBO, 70 μg carvone, 190 μg menthone, 80 μg fenchone) + permethrin 18 ng): 100 ± 0%
1-h knockdown Co-Toxicity Factor [3, 15]: 3.2
24-h mortality Co-Toxicity Factor [3, 15]: 65.6
Dermal LD50 [4]: >4000 (rt) mg compound per kg body weight
Oral LD50 [5]: 5400 (rt) mg compound per kg body weight
half-life [6]: 23 to 27.8 h
half-life ([7]; acidic conditions): ≤ 108 h
inhibition of AChE ([8]; at 1 mM, M. domestica preparation): 11.1 ± 2.9%
1-h% Mean Knockdown ± SEM, Synergist Alone ([9]; 2 μg applied): 5 ± 5%
24-h% Mean Mortality ± SEM, Synergist Alone ([9]; 2 μg applied): 5 ± 2.9%
48-h% Mean Mortality ± SEM, Synergist Alone ([9]; 2 μg applied): 5 ± 2.9%
1-h% Mean Knockdown ± SEM, Mixture ([9]; 2 μg synergist + methomyl 6 ng/mosquito): 96.7 ± 3.3%
1-h knockdown Co-Toxicity Factor ([9]; 2 μg synergist + methomyl): 4.5
24-h mortality Co-Toxicity Factor ([9]; 2 μg synergist + methomyl): 23
48-h mortality Co-Toxicity Factor ([9]; 2 μg synergist + methomyl): 24
1-h% Mean Knockdown ± SEM, Synergist Alone ([9]; 10 μg applied): 20 ± 5.8%
24-h% Mean Mortality ± SEM, Synergist Alone ([9]; 10 μg applied): 7.5 ± 2.5%
48-h% Mean Mortality ± SEM, Synergist Alone ([9]; 10 μg applied): 15 ± 2.9%
1-h% Mean Knockdown ± SEM, Mixture ([9]; 10 μg synergist + methomyl 6 ng/mosquito): 100 ± 0%
1-h knockdown Co-Toxicity Factor ([9]; 10 μg synergist + methomyl): −7
24-h mortality Co-Toxicity Factor ([9]; 10 μg synergist + methomyl): 28
48-h mortality Co-Toxicity Factor ([9]; 10 μg synergist + methomyl): 8
times as effective a synergist of methomyl as PBO ([9]; 24-h mortality, 2 μg synergist): 1.7
LD10 (95% CI) [10]: 3900 (1900–5200) b ng/mg body weight
LD50 (95% CI) [10]: 7300 (6700–7900) c ng/mg body weight
LD90 (95% CI) [10]: 14,200 (11,000–26,600) c ng/mg body weight
times as toxic as fenchone ([10]; at LD10): about 1.9
times as toxic as fenchone ([10]; at LD50): about 1.5
times as toxic as fenchone ([10]; at LD90): about 3.0
1-h% Mean Knockdown ± SEM, Mixture ([11]; 2 μg synergist + permethrin 0.6 ng/mosquito): 100 ± 0%
1-h knockdown Co-Toxicity Factor ([11]; 2 μg synergist + permethrin): 23.5
24-h mortality Co-Toxicity Factor ([11]; 2 μg synergist + permethrin): 83
1-h% Mean Knockdown ± SEM, Synergist Alone ([11]; 2 μg synergist per Ae. aegypti): 5 ± 5%
24-h% Mean Mortality ± SEM, Synergist Alone ([11]; 2 μg synergist per Ae. aegypti): 5 ± 2.9%
1-h% Mean Knockdown ± SEM, Mixture ([11]; 10 μg synergist + permethrin 0.6 ng/mosquito): 100 ± 0%
1-h knockdown Co-Toxicity Factor ([11]; 10 μg synergist + permethrin): 4
24-h mortality Co-Toxicity Factor ([11]; 10 μg synergist + permethrin): 76
1-h% Mean Knockdown ± SEM, Synergist Alone [11, 16]: 20 ± 5.8%
24-h% Mean Mortality ± SEM, Synergist Alone [11, 16]: 7.5 ± 2.5%
times as strong a synergist of permethrin as PBO ([11]; 24-h mortality, 2 μg synergist): 3.3

CNC(=O)ON=C(C)SC [Methomyl, methomyl, reference compound]
LD50 ([2]; topical, sufficient toxicity not observed at highest doses applied): > 100 ng
Dermal LD50 [12]: 5880 (rb) mg compound per kg body weight
Oral LD50 [5]: 17–24 (rt) mg compound per kg body weight
IC50 [13]: 2500 nM and 1700 nM
aerobic soil half-life [7]: approximately 14 d
inhibition at 100 µM ([8]; at 100 µM, preparation not given, follows the M. domestica values, read-out: inhibition of AChE): 99.4 ± 0.1%
1-h% Mean Knockdown ± SEM, Methomyl Alone ([9]; methomyl 6 ng/mosquito): 87.5 ± 9.5%
24-h% Mean Mortality ± SEM, Methomyl Alone ([9]; methomyl 6 ng/mosquito): 57.5 ± 25.3%
48-h% Mean Mortality ± SEM, Methomyl Alone ([9]; methomyl 6 ng/mosquito): 65 ± 21.8%
LD10 (95% CI) [10]: 0.97 (0.27–1.6) a ng/mg body weight
LD50 (95% CI) [10]: 2.7 (1.6–4.3) b ng/mg body weight
LD90 (95% CI) [10]: 7.55 (4.7–22.5) b ng/mg body weight

CC1(C)C(C=C(Cl)Cl)C1C(=O)OCc1cccc(Oc2ccccc2)c1 (centres unmarked) [Permethrin, reference compound]
LD10 (95% CI) ([2]; topical): 0.46 (0.37–0.56) a ng/mg body weight
LD50 (95% CI) ([2]; topical): 0.84 (0.79–0.93) a ng/mg body weight
LD90 (95% CI) ([2]; topical): 1.5 (1.4–1.7) a ng/mg body weight
Dermal LD50 [12]: 2000 (rb) mg compound per kg body weight
1-h% Mean Knockdown ± SEM, Permethrin Alone ([3]; permethrin 18 ng): 80 ± 7.3%
24-h% Mean Mortality ± SEM, Permethrin Alone ([3]; permethrin 18 ng): 58 ± 10.1%
Oral LD50 [5]: 430–4000 (rt) mg compound per kg body weight
aerobic soil half-life [7]: 278 to 2710 h
LD10 (95% CI) [10]: 0.23 (0.12–0.33) a ng/mg body weight
LD50 (95% CI) [10]: 0.58 (0.45–0.71) a ng/mg body weight
LD90 (95% CI) [10]: 1.41 (1.08–2.24) a ng/mg body weight
1-h% Mean Knockdown ± SEM, Permethrin Alone ([11]; permethrin 0.6 ng/mosquito): 76 ± 9.2% and 87.5 ± 6.3%
24-h% Mean Mortality ± SEM, Permethrin Alone ([11]; permethrin 0.6 ng/mosquito): 27.5 ± 4.8%
24-h% Mean Mortality ± SEM, Permethrin Alone ([11]; permethrin 0.6 ng/mosquito, listed as permethrin): 36 ± 6%
